Consider 33 molecules from US5268389A, “Thiocarboxylate ester compounds compositions containing the same” (priority 1990, dated 1993).

Experiment [1] relates to HIV. In words: Reduction of HIV cytopathic effect, CEM-6 (CEMV test, six days). It is filed as cell-based. The following applies: CEM cells; for EC50: free HIV, read-out: Activity of Anti-HIV Compounds (EC50), CEM-6; for Activity class of Anti-HIV Compounds, CEM-6: inhibition of viral cytopathic effect, 8640 min. As for the experimental part:
(§1) The compounds of Examples were tested for anti-AIDS activity by subjecting them to standard National Cancer Institute ("NCI") in vitro screening procedures. In carrying out each test, two blanks were run. In the first blank, HIV and a culture of a standard human cell line were incubated together to measure the infectivity of the virus. The viability of the cells was measured after holding for six or seven days. In an "effective" test, most cells were infected before the holding period was complete.
(§2) Finally, the protective effects of the test compounds were measured. Each cell culture and test compound were incubated with the virus and the viability of the cells was measured as a function of compound concentration after holding for six or seven days. If the compound is active in protecting the cells against the virus, there is typically low cell viability until an effective concentration of the test compound is reached. At this point, cell viability increases steadily toward 100% unless the toxic effect of the compound (as measured in the second blank) takes effect. The concentration of the test compound that results in 50% "control," i.e., a 50% reduction of the viral cytopathic effect, is defined as the EC 50. The therapeutic index TI50 is calculated as IC50/EC50.
(§3) Values of test compound concentrations required for between 20 and 50% reduction of the viral cytopathic effect can also be determined. Such compounds are classified as moderately active.
(§4) The compounds were tested to determine their reduction of HIV cytopathic effect on the human cell lines CEM and MT2. Tests were done by innoculating these cell lines either with free HIV (V) or with a virus Previously cultured with host cells (C). Thus, in Table III the designation CEMV means CEM line cells innoculated with free virus and MT2C means MT2 cells innoculated with cultured viral infected MT2 cells. In some cases the compound was also tested on a cell line together with a sub-effective amount of the known HIV viricide AZT. This is done to test possible synergistic effects. Such a test on the CEM line is denoted CEMZ.
(§5) 1) T4 lymphocytes (CEM cell line) are exposed to HIV at a virus to cell ratio of approximately 0.05 and plated along with non-infected control cells in 96-well microtiter plates.
(§6) 2) Each candidate agent is dissolved in dimethyl sulfoxide (unless otherwise indicated), then diluted 1:200 in cell culture medium. Further dilutions (five-fold) are prepared before adding to an equal volume of medium containing either infected or noninfected cells.
(§7) 3) Cultures are incubated at 37° C. in a 5% carbon dioxide atmosphere for seven days (if six days the CEMV test is identified as CEM-6).
(§8) 4) The tetrazolium salt, XTT, is added to all wells, and cultures are incubated to allow formazan color development by viable cells.
(§9) 5) Individual wells are analyzed spectrophotometrically to quantity formazan production, and in addition are viewed microscopically for detection of viable cells and confirmation of protective activity.
(§10) 6) Drug-treated virus-infected cells are compared with drug-treated non-infected cells and with other appropriate controls (untreated infected and untreated non-infected cells, drug-containing wells without cells, etc.) on the same plate.

Experiment [2] relates to HIV. Put plainly: microbe, parasite or virus in culture. The experiment is classed as cell-based. As to conditions: CEM cells; for EC50: free HIV, read-out: Activity of Anti-HIV Compounds (EC50), CEMV. The protocol:
as §1
In the second blank, the cell line culture and the compound being tested (but not virus) were incubated together to measure the toxicity of the drug to the cellline. The viability of the cells was measured as a function of concentration of the compound, after holding for seven days. Typically, the cells survive at low compound concentrations, but at some higher concentration, toxicity of the compound is manifested and the cells die. The concentration of the test compound that results in 50% inhibition of cell growth is defined as the IC50.
as §2, §3, §4, §5, §6, §7, §8, §9, §10
7) A determination of activity is made. […]

Where [3] appears, read: Human immunodeficiency virus 1, CCRF-CEM, 144 h.
The mark [4] stands for this setting: Human immunodeficiency virus 1, CCRF-CEM.

“And” between values parts separate entries of the source, which are not always exact repeats. Equal entries are not always repeated.

By EC50 is commonly meant the concentration needed to bring the measured effect to its halfway point. In the case of `CC(C)OC(=O)c1cc(NC(=S)OC2CCCCC2)ccc1Cl` [Compound 44], the EC50 was 1340 nM with HIV [1] and 760 nM in the experiment with HIV [1] (setting [3]).

`CC(C)OC(=O)c1cc(NC(=S)OCC2CC2)ccc1Cl` [Compound 46]: the EC50 in the experiment on HIV [1] was determined as 53 nM.

As for `CCOC(=O)c1cc(NC(=O)c2ccccc2OC)ccc1Cl` [Compound 86, Ethyl 2-chloro-5-[(2-methoxybenzoyl)amino]benzoate], the EC50 in the experiment on HIV [1] worked out at 1360 nM; with HIV [1] (setting [3]) it was 1740 nM.

In the case of `Cc1occc1C(=O)Nc1ccc(Cl)c(C(=O)OC(C)C)c1` [Compound 79, 1-Methylethyl 2-chloro-5-[[(2-methyl-3-furanyl)carbonyl]amino]benzoate], in the experiment with HIV [1], the EC50 came out at 3300 nM.

For `CC(C)OC(=O)c1cc(NC(=O)c2ccccc2Cl)ccc1Cl` [Compound 90, 1-Methylethyl 2-chloro-5-[(2-chlorobenzoyl)amino]benzoate], the “Activity class of Anti-HIV Compounds, CEM-6” value (shortened to “Activity class … CEM-6”) in the experiment on HIV [1] is “MA (moderate activity (MA), that is, inhibition between approximately 20 and 50%)”.

On to `Cc1cc(C)c(C(=O)Nc2ccc(Cl)c(C(=O)OC(C)C)c2)s1` [Compound 108], for which the “Activity class … CEM-6” value in the experiment with HIV [1] is “MA (moderate activity (MA), that is, inhibition between approximately 20 and 50%)”.

As for `CC(C)OC(=O)c1cc(NC(=O)C2=CCCCC2)ccc1Cl` [Compound 107], in the experiment on HIV [1], the “Activity class … CEM-6” value was “MA (moderate activity (MA), that is, inhibition between approximately 20 and 50%)”.

Consider `CCCCOC(=O)c1cccc(NC(=O)C2=C(C)OCCS2)c1` [Compound 76], for which the “Activity class … CEM-6” value with HIV [1] was “MA (moderate activity (MA), that is, inhibition between approximately 20 and 50%)”.

Regarding `CC(C)OC(=O)c1cc(NC(=S)N(C)C)ccc1Cl` [Compound 48], the “Activity class … CEM-6” value in the experiment on HIV [1] was “MA (moderate activity (MA), that is, inhibition between approximately 20 and 50%)”.

In the case of `Cc1nc(-c2ccccc2)c(C(=O)Nc2ccc(Cl)c(C(=O)OC(C)C)c2)o1` [Compound 105], in the experiment on HIV [1], the “Activity class … CEM-6” value is “MA (moderate activity (MA), that is, inhibition between approximately 20 and 50%)”.

Take `CCCC1=C(C(=O)Nc2ccc(Cl)c(C(=O)OCC)c2)SCCO1` [Compound 70, Ethyl 2-chloro-5-[[(5,6-dihydro-2-propyl-1,4-oxathiin-3-yl)carbonyl]amino]benzoate]: the EC50 in the experiment with HIV [1] was 210 nM and 230 nM; with HIV [1] (setting [3]) it was 170 nM.

In the case of `CC1=C(C(=O)Nc2ccc(F)c(C(=O)OC(C)C)c2)SCCO1` [Compound 72], the EC50 in the experiment on HIV [1] is 590 nM and 340 nM; in the experiment on HIV [1] (setting [3]), 540 nM.

With `CCCOC(=O)c1ccc(C)c(NC(=O)C2=C(C)OCCS2)c1` [Compound 75, Propyl 3-[[(5,6-dihydro-2-methyl-1,4-oxathiin-3-yl)carbonyl]amino]-4-methylbenzoate], the EC50 stood at 908 nM with HIV [1] and 1060 nM in the experiment on HIV [1] (setting [3]).

In the case of `CC1=C(C(=O)Nc2ccc(C)c(C(=O)OC(C)C)c2)SCCO1` [Compound 73], the EC50 in the experiment on HIV [1] worked out at 580 nM; in the experiment with HIV [1] (setting [3]) it was 410 nM.

Take `Cc1nc(C(=O)Nc2ccc(Cl)c(C(=O)OC(C)C)c2)c(-c2ccccc2)o1` [Compound 103]: in the experiment with HIV [1], the “Activity class … CEM-6” value was “MA (moderate activity (MA), that is, inhibition between approximately 20 and 50%)”.

With `CC(C)OC(=O)c1cc(NC(=O)c2c(Br)c(Br)c(Br)c(Br)c2C(=O)O)c(F)cc1Cl` [Compound 20, 2,3,4,5-Tetrabromo-6-[[[4-chloro-2-fluoro-5-[(1-methylethoxy)carbonyl]phenyl]amino]carbonyl]benzoic acid], the EC50 was 58700 nM and 69400 nM and 54500 nM in the experiment with HIV [2]; 69500 nM with HIV [2] (setting [4]).

Turning to `CCCOC(=O)c1cc(NC(=O)C2=C(C)OCCS2)ccc1Cl` [Compound 5, Propyl 2-chloro-5-[[(5,6-dihydro-2-methyl-1,4-oxathiin-3-yl)carbonyl]amino]benzoate], the EC50 with HIV [2] was 60 nM; with HIV [2] (setting [4]) it was 70 nM.

Turning to “Ethyl 5-[(2-aminobenzoyl)amino]-2-chlorobenzoate [Compound 88]”, the EC50 in the experiment with HIV [1] is 5700 nM and 3100 nM.

With `COCCOC(=O)c1cc(NC(=O)C2=C(C)OCCS2)ccc1Cl` [Compound 69], in the experiment with HIV [1] (setting [3]), the EC50 was 340 nM.

On to `CCCCCOC(=O)c1cc(NC(=O)C2=C(C)OCCS2)ccc1Cl` [Compound 15, Pentyl 2-chloro-5-[[(5,6-dihydro-2-methyl-1,4-oxathiin-3-yl)carbonyl]amino]benzoate], for which the EC50 was 610 nM in the experiment on HIV [2] and 820 nM with HIV [2] (setting [4]).

Regarding `CCOC(=O)c1cc(NC(=O)c2ccccc2)ccc1Cl` [Compound 87, Ethyl 5-(benzoylamino)-2-chlorobenzoate], the “Activity class … CEM-6” value in the experiment on HIV [1] was “MA (moderate activity (MA), that is, inhibition between approximately 20 and 50%)”.

Regarding `CC(C)OC(=O)c1cc(NC(=S)OC(C)C)ccc1Cl` [Compound 32, 1-Methylethyl 2-chloro-5-[[(1-methylethoxy)thioxomethyl]amino]benzoate], the EC50 with HIV [2] is 59 nM and 30 nM; with HIV [2] (setting [4]), 35 nM.

For `Cc1ccsc1C(=O)Nc1ccc(Cl)c(C(=O)OC(C)C)c1` [Compound 106], the EC50 with HIV [1] is 2200 nM.

As for `CC1=C(C(=O)Nc2ccc(Cl)c(C(=O)OC(C)C)c2)SCCS1` [Compound 27, 1-Methylethyl 2-chloro-5[[(5,6-dihydro-3-methyl-1,4-dithiin-2-yl)carbonyl]amino]benzoate], the EC50 with HIV [2] is 810 nM; in the experiment with HIV [2] (setting [4]) it was 1380 nM.

On to `CC(C)NC(=S)Nc1ccc(Cl)c(C(=O)OC(C)C)c1` [Compound 49], for which, in the experiment with HIV [1], the “Activity class … CEM-6” value is “MA (moderate activity (MA), that is, inhibition between approximately 20 and 50%)”.

In the case of `CCC1=C(C(=O)Nc2ccc(Cl)c(C(=O)OCC(C)C)c2)SCCO1` [Compound 74, 2-Methylpropyl 2-chloro-5-[[(2-ethyl-5,6-dihydro-1,4-oxathiin-3-yl)carbonyl]amino]benzoate], the EC50 with HIV [1] (setting [3]) was 38900 nM.

Regarding `Cc1coc(C)c1C(=O)Nc1ccc(Cl)c(C(=O)OC(C)C)c1` [Compound 80, 1-Methylethyl 2-chloro-5-[[(2,4-dimethyl-3-furanyl)carbonyl]amino]benzoate], the EC50 in the experiment on HIV [1] turned out to be 2300 nM.

Turning to `C#CCOC(=O)Nc1ccc(Cl)c(C(=O)OC(C)C)c1` [Compound 92, 1-Methylethyl 2-chloro-5-[((2-propynyloxy)carbonyl]amino]benzoate], the “Activity class … CEM-6” value with HIV [1] is “MA (moderate activity (MA), that is, inhibition between approximately 20 and 50%)”.

Regarding `CC(C)OC(=O)c1cc(NC(=O)c2cc3ccccc3[nH]2)ccc1Cl` [Compound 104], the “Activity class … CEM-6” value in the experiment on HIV [1] is “MA (moderate activity (MA), that is, inhibition between approximately 20 and 50%)”.

In the case of `CC1=C(C(=O)Nc2cccc(C#N)c2)SCCO1` [Compound 9, N-(3-Cyanophenyl)-5,6-dihydro-2-methyl-1,4-oxathiin-3-carboxamide], the “Activity class of Anti-HIV Compounds, CEMV” value in the experiment with HIV [2] (inhibition of viral cytopathic effect, free virus) is “MA (moderate activity (MA), that is, inhibition between approximately 20 and 50%)”.

On to `CCOC(=O)c1cc(NC(=O)C2=C(C)OCCS2)ccc1Cl` [Compound 4, Ethyl 2-chloro-5-[[(5,6-dihydro-2-methyl-1,4-oxathiin-3-yl)carbonyl]amino]benzoate], for which the EC50 in the experiment with HIV [2] was 300 nM and 200 nM; in the experiment with HIV [2] (setting [4]), 400 nM.

For the molecule `CCOC(=O)c1ccc(C)c(NC(=O)C2=C(C)OCCS2)c1` [Compound 14, Ethyl 3-[[(5,6-dihydro-2-methyl-1,4-oxathiin-3-yl)carbonyl]amino]-4-methylbenzoate], the EC50 in the experiment with HIV [2] was found to be 5200 nM; in the experiment with HIV [2] (setting [4]), 7600 nM.

For the molecule `CC(C)OC(=O)c1cc(NC(=O)c2c(Br)c(Br)c(Br)c(Br)c2C(=O)O)ccc1Cl` [Compound 21, 2,3,4,5-Tetrabromo-6-[[[4-chloro-3-[(1-methylethoxy)carbonyl]phenyl]amino]carbonyl]benzoic acid], the half-maximal effective concentration (EC50) in the experiment with HIV [2] came to 36200 nM; in the experiment on HIV [2] (setting [4]), 58200 nM.
